Source: US20120244619A1, “COMPOSITION FOR PROMOTING DIFFERENTIATION OF PLURIPOTENT STEM CELLS INTO CARDIAC MUSCLE CELLS WHICH COMPRISES NITROVIN” (KYOTO UNIVERSITY, priority 2009, published 2012)

Columns and labels:
Format in all cases: cell-based
[1] = system: CMK 6.4 cynomolgus monkey ES cells; assay: Screening of agents which promote cardiac muscle cell differentiation of monkey ES cells (α-MHC promoter-GFP, HCS); conditions: 96-well, about 1-5 μM compound/well added day 6-14, read at day 14 of culture
Procedure: As described in FIG. 1, screening of agents which promote cardiac muscle cell differentiation of monkey ES cells was performed. A vector expressing green fluorescent protein (GFP) under control of a promoter of a-MHC gene, a marker of cardiac muscle cell differentiation, was introduced into monkey ES cell line (CMK 6.4 cynomolgus monkey ES cells) and the cells were seeded on 96-well culture plates (Greiner/655090: 96 well FIA black plate) in 5.0×10^2 cells/well, and cultured for 14 days in a differentiation medium for cardiac muscle cell differentiation (200 ml IMDM (Sigma 13390) containing 50 ml bovine fetal serum (GIBCO 10099-141), 2.5 ml MEM non-essential amino acid solution (Sigma M7145), 2.5 ml penicillin-streptomycin (GIBCO 15140), 2.5 ml 200 mM L-glutamine, 2 μl 2-mercaptoethanol (Sigma M7522), 255 μl 5N NaOH 255 μl). During day 6-14 of culture, 9,600 library compounds were added into separate wells (about 1-5 μM compound/well). Then, at day 14 of culture, GFP expression was determined by using HCS (high contents screening) system (Molecular device/MetaMorph imaging system). As a result, GFP fluorescence intensity was high in the wells added with nitrovin (FIG. 2).

[2] = system: CMK 6.4 cynomolgus monkey ES cells; assay: Effect of nitrovin for promoting cardiac muscle cell differentiation of monkey ES cells
Procedure: As described in Example 1, a vector expressing green fluorescent protein (GFP) was introduced into monkey ES cell line (CMK 6.4 cynomolgus monkey ES cells). The monkey ES cells were seeded and cultured on 6-well culture plates (Asahi Glass/5816-006: Ezview culture plate) in 4.0×10^6 cells/well. The culture medium was the same as described in Example 1. At day 6 of culture, nitrovin was added at a final concentration of 1 μM, 5 μM, or 20 μM. At day 18 of culture, fluorescence intensity of GFP and number of beating colonies of cardiac muscle cells were determined. When nitrovin was added, the fluorescence intensity and number of beating colonies increased up to about 5 times and about 10 times higher, respectively (FIGS. 3-1 and 3-2).

[3] = system: human ES cell line (Kh−1); assay: Effect of nitrovin for promoting cardiac muscle cell differentiation of human ES cells; conditions: nitrovin 1, 5 or 20 μM added at day 6, read at day 18
Procedure: As described in Example 1, a vector expressing green fluorescent protein (GFP) was introduced into human ES cell line (Kh−1). The human ES cells were seeded and cultured on 6-well culture plates (Asahi Glass/5816-006: Ezview culture plate) in 1.2×10^6 cells/well. The culture medium was the same as described in Example 1. At day 6 of culture, nitrovin was added at a final concentration of 1 μM, 5 μM, or 20 μM. At day 18 of culture, fluorescence intensity of GFP was determined.

[4] = system: CMK 6.4 cynomolgus monkey ES cells; assay: Comparison of nitrovin and cytokines in cardiac muscle cell differentiation of monkey ES cells; conditions: nitrovin 5 μM day 6-14; cytokines (bFGF, BMP4, VEGF, DKK1, Activin A) day 1-14; read at day 18
Description: Nitrovin and a mixture of cytokines (bFGF, BMP4, VEGF, DKK1, and Activin A) known as a promoter of cardiac muscle cell differentiation were compared as to increase of GFP fluorescence intensity, number of beating colonies of cardiac muscle cells, and expression of Troponin T, a marker of cardiac muscle cell differentiation.
As described in Example 1, a vector expressing green fluorescent protein (GFP) was introduced into monkey ES cell line (CMK 6.4 cynomolgus monkey ES cells). The culture medium was the same as described in Example 1. The monkey ES cells were seeded on 6-well culture plates and nitrovin (final concentration: 5 μM) or a mixture of cytokines (bFGF, BMP4, VEGF, DKK1, and Activin A) (final concentration: 5 ng/ml, 10 ng/ml, 10 ng/ml, 150 ng/ml, and 3 ng/ml, respectively) was added during day 6-14 of culture (nitrovin) or day 1-14 of culture (cytokines).

[5] = nitrovin 1, 5 or 20 μM added at day 6, read at day 18, maximal increase vs control (DMSO)

In the case of `N=C(N)NN=C(/C=C/c1ccc([N+](=O)[O-])o1)/C=C/c1ccc([N+](=O)[O-])o1` [nitrovin], the “GFP fluorescence intensity (GFP expression under α-MHC promoter)” value [1] is reported as “high”, the “most effective final concentration” value ([2]; among 1, 5 and 20 μM, GFP fluorescence intensity and beating colonies at day 18) is reported as 5 µM and the “increase of GFP fluorescence intensity” value [2, 5] is reported as “about 5 times”. The “increase of number of beating colonies of cardiac muscle cells” value [2, 5] was “about 10 times”, the GFP fluorescence intensity [3] was “increase of GFP fluorescence intensity induced by nitrovin was also observed” and the “GFP fluorescence intensity compared to the mixture of cytokines” value [4] was “highly effective”. For the same compound, the “expression level of Troponin T compared to the mixture of cytokines” value [4] was “highly effective” and the “number of beating colonies compared to the mixture of cytokines” value [4] was “highly effective”.
